Test results taken from patent US20080081078A1, “Prevention of Cell Proliferation by Inhibiting Myosin Light Chain Kinase” (The Board of Trustees of the University of Illinois, priority 2006, published 2008).
*1 amine or outer side, *2 acyl side, *3 side chain or, on linkers, in order; H or OH if unused. Where a SMILES comes first, the peptide text is derived from it. Bridges are numbered along the chain shown (N, C = ends). Roman numbers before positions name the chains, in order. [ ]: non-standard residue; d: D form. The star is where a group is joined. Actinocin(9to1) = Cc1c2oc3c(C)ccc(C(=O)[*:1])c3nc-2c(C(=O)[*:2])c(N)c1=O; NMeV = CN[C@H](C(=O)O)C(C)C; Cbz = O=C(OCc1ccccc1)*; Sar = CNCC(=O)O; CH2F = FC*

Experiments:
[1] = test system: MLC20 phosphorylation; assay: MLC20 phosphorylation by urea gel/Western blotting in smooth muscle cells (SMC); format: cell-based, pig
Procedure: NIH 3T3 fibroblasts were obtained from ATCC and were grown in Dulbecco's Modified Eagle Medium (DMEM) (Gibco BRL, Gaithersburg, Md.) supplemented with 10% FBS and 1% penicillin and streptomycin in a 37° C. incubator. 3T3 cells were treated with 500 nM actinomycin D in DMEM containing 0.5% FBS without antibiotics for the 0, 2, 4, 8, 16, or 24 hours. Cells were then washed with phosphate buffered saline (PBS). Floating cells were collected by centrifugation and combined with attached cells that were harvested by trypsinization. MLC20 phosphorylation was quantified be Western blotting with an anti-MLC20 antibody (FIG. 1). In short, the harvested cells were treated with ice cold 10% TCA, 10 mM DTT to precipitate the cellular proteins. The pellets were washed with acetone, dissolved in 9 M urea, 10 mM DTT, 20 mM Tris, pH 7.5 and separated using glycerol-urea polyacrylamide gel electrophoresis (PAGE). The proteins were transferred to nitrocellulose, the un-, mono-, and di-phosphorylated forms of MLC20 were identified using an affinity purified antibody to MLC20 and horseradish peroxidase-linked secondary antibody (Jackson ImmunoResearch, West Grove, Pa.). Protein bands were visualized with ECL reagent and the stoichiometry of phosphorylation (mol PO4/mol MLC20) was calculated as described (Obara et al., 1989, “Okadaic acid, a phosphatase inhibitor, produces a Ca2+ and calmodulin-independent contraction of lamb tracheal smooth muscle,” Pfluger's Archiv. 414: 134-138).
(§1) The stoichiometry of MLC20 phosphorylation (FIG. 1B, inset) was quantified using the urea gel/Western blotting method described above in untreated (Un) pig pulmonary artery smooth muscle cells (SMC) and SMC treated with 10 μM dexamethasone (Dex), 10 μM actinomycin D (ActD), 100 μM cycloheximide (Chx), 2 μM camptothecin (Cam), and 100 μM etoposide (Eto) for 24 hrs (mean+/−SE, n=3).
(§2) Next, in order to determine whether MLC-DP can trigger cell death, SMC were treated with ML-7 or KT5926, two inhibitors of MLCK (Nakanishi et al., 1990; Garcia, 1998; and Bain et al., 2003).
(§3) SMC cells were either treated with 10 μM cytochalasin D (CytD) or grown on the non-ionic substrate polyHema to prevent attachment.

[2] = test system: NIH 3T3 cells; assay: Cell death in NIH 3T3 cells; format: cell-based; conditions: data not shown
[3] = test system: pig pulmonary artery smooth muscle cells; assay: Cell death / apoptosis in smooth muscle cells (SMC); format: cell-based
Procedure: as §1, §2, §3
SMC were left untreated, treated with ML-7 alone for 16 hours or treated with 50 μM z-VAD-fmk (caspase) for 1 hr followed by 20 μM ML-7 for 16 hours. […] The results represent the mean+/−SE for 3 independent experiments and * indicates a p value <0.05 using a paired T test.

[4] = test system: SMC; assay: TUNEL staining of SMC; format: cell-based, pig
Procedure: Also, cells were treated with 50 μM z-VAD-fmk for 1 hour, 20 μM ML-7 for 4 hours or 50 μM z-VAD-fmk for 1 hours followed by 20 μM ML-7 for 4 hours (FIG. 5B). The cells were then fixed and stained with TUNEL reagent and DAPI.

[5] = test system: MLC20 phosphorylation; assay: MLC20 phosphorylation by urea gel/Western blotting in NIH 3T3 fibroblasts; format: cell-based; conditions: 500 nM actinomycin D, 0-24 hours
Procedure: NIH 3T3 fibroblasts were obtained from ATCC and were grown in Dulbecco's Modified Eagle Medium (DMEM) (Gibco BRL, Gaithersburg, Md.) supplemented with 10% FBS and 1% penicillin and streptomycin in a 37° C. incubator. 3T3 cells were treated with 500 nM actinomycin D in DMEM containing 0.5% FBS without antibiotics for the 0, 2, 4, 8, 16, or 24 hours. Cells were then washed with phosphate buffered saline (PBS). Floating cells were collected by centrifugation and combined with attached cells that were harvested by trypsinization. MLC20 phosphorylation was quantified be Western blotting with an anti-MLC20 antibody (FIG. 1). In short, the harvested cells were treated with ice cold 10% TCA, 10 mM DTT to precipitate the cellular proteins. The pellets were washed with acetone, dissolved in 9 M urea, 10 mM DTT, 20 mM Tris, pH 7.5 and separated using glycerol-urea polyacrylamide gel electrophoresis (PAGE). […] Protein bands were visualized with ECL reagent and the stoichiometry of phosphorylation (mol PO4/mol MLC20) was calculated as described (Obara et al., 1989, “Okadaic acid, a phosphatase inhibitor, produces a Ca2+ and calmodulin-independent contraction of lamb tracheal smooth muscle,” Pfluger's Archiv. 414: 134-138).

[6] = 24 hrs, 10 μM Dex, 10 μM ActD, 100 μM Chx, 2 μM Cam, 100 μM Eto

## C[C@@H]1C[C@@H]([C@H](O)CC2CC(=O)NC(=O)C2)C(=O)[C@@H](C)C1 [cycloheximide]
[1]; [6]
  MLC20 phosphorylation: dephosphorylated

## CC[C@@]1(O)C(=O)OCc2c1cc1n(c2=O)Cc2cc3ccccc3nc2-1 [camptothecin]
[1]; [6]
  MLC20 phosphorylation: dephosphorylated

## CCCOc1ccc2c(c1)c1c3c(c4c5ccccc5n5c4c1n2[C@H]1C[C@](O)(C(=O)OC)[C@]5(C)O1)CNC3=O (relative stereo) [KT5926, [(8R*,9S*,11S*)-(−)9-hydroxy-9-methoxycarbonyl-8-methyl-14-n-propoxy-2,3,9,10-tetrahydro-8,11-epoxy, 1H,8H, 11H-2,7b,11a-triazadibenzo [a,g]cycloocta [cde]trinden-1-one]
[2]
  cell death: cell death, including genome digestion

## COC(=O)C[C@H](NC(=O)[C@H](C)NC(=O)[C@@H](NC(=O)OCc1ccccc1)C(C)C)C(=O)CF [z-VAD-fmk] (Cbz-Val-Ala-Asp(OMe)-CH2F)
[3]; 50 μM z-VAD-fmk 1 hr then 20 μM ML-7 16 hours, vs ML-7 alone
  number of apoptotic cells (FACS): significant decrease
[4]; 50 μM z-VAD-fmk 1 hour then 20 μM ML-7 4 hours
  TUNEL positive nuclei in ML-7 treated cells: decreased the number of TUNEL positive nuclei
[4]; single agent: 50 μM z-VAD-fmk 1 hour or 20 μM ML-7 4 hours
  TUNEL positive nuclei: very few TUNEL positive nuclei

## Cc1c2oc3c(C)ccc(C(=O)N[C@@H]4C(=O)N[C@H](C(C)C)C(=O)N5CCC[C@H]5C(=O)N(C)CC(=O)N(C)[C@@H](C(C)C)C(=O)O[C@@H]4C)c3nc-2c(C(=O)N[C@@H]2C(=O)N[C@H](C(C)C)C(=O)N3CCC[C@H]3C(=O)N(C)CC(=O)N(C)[C@@H](C(C)C)C(=O)O[C@@H]2C)c(N)c1=O [actinomycin D] (I: T[dV]P[Sar][NMeV] / II: T[dV]P[Sar][NMeV]; ester I:1-I:C, II:1-II:C; linker I:N-II:N via Actinocin(9to1))
[1]; [6]
  MLC20 phosphorylation: dephosphorylated
[5]
  MLC20 phosphorylation: initial increase in MLC20 phosphorylation that was followed by MLC20 dephosphorylation

## C=C1[C@@H](C)[C@H]2[C@H](Cc3ccccc3)NC(=O)[C@]23[C@H](OC(C)=O)/C=C/[C@@](C)(O)C(=O)[C@@H](C)C/C=C/[C@H]3[C@@H]1O [cytochalasin D]
[3]; SMC, 10 μM cytochalasin D overnight, vs untreated
  cell death: significant increases
[1]; 10 μM cytochalasin D overnight, vs untreated
  MLC20 phosphorylation: significant decreases
